Test results: PMC12013712, “The protein kinases KIPK and KIPK-LIKE1 suppress overbending during negative hypocotyl gravitropic growth in Arabidopsis” (The Plant Cell, 2025)

Key:
[1] = biological target: T1, KIPKL1 (Arabidopsis thaliana, UniProt Q9SJM3); test: in vitro phosphorylation of GST-PIN3CL, autoradiography; type: biochemical; conditions: MBP fusion; 100 µM ATP with [γ-32P]ATP, labelled compound; 5 mM MgCl2, pH 7.5, 30 °C, 1 h
T1 construct: gene KIPK2; GST fusion (PIP strips) or MBP fusion (phosphorylation), tags kept, from E. coli Rosetta (DE3)
T1 sequence (Q9SJM3 1-949): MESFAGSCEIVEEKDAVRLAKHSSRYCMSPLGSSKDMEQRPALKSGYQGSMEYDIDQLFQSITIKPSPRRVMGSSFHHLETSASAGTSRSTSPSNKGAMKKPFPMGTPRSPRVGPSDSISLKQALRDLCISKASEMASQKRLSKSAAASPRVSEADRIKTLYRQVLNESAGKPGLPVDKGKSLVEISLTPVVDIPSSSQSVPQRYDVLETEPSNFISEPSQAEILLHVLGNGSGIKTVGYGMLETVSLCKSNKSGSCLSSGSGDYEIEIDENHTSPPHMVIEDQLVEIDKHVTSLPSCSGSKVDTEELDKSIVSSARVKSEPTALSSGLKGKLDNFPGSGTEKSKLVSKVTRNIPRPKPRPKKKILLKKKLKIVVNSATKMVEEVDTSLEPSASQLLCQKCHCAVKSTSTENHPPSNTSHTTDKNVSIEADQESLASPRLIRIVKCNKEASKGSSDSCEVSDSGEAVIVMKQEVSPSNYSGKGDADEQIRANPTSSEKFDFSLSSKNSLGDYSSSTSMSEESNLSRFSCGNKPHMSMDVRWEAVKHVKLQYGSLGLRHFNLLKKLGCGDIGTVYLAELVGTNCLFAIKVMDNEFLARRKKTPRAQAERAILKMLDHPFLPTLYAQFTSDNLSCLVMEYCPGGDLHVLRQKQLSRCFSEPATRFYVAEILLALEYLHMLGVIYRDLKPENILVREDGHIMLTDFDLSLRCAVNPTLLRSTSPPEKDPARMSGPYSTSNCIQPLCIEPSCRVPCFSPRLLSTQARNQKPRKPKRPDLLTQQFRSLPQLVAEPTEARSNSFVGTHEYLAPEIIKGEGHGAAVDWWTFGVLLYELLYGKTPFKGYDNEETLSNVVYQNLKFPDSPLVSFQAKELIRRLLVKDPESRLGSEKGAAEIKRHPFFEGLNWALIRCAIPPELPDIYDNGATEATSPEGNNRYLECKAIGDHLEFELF

[2] = biological target: T2, KIPK (Arabidopsis thaliana, UniProt Q9LFA2); test: as above; type: biochemical; conditions: MBP fusion; 100 µM ATP with [γ-32P]ATP, labelled compound; 5 mM MgCl2, pH 7.5, 30 °C, 1 h
T2 construct: gene KIPK1; GST fusion (PIP strips) or MBP fusion (phosphorylation), tags kept, from E. coli Rosetta (DE3)
T2 sequence (Q9LFA2 1-934): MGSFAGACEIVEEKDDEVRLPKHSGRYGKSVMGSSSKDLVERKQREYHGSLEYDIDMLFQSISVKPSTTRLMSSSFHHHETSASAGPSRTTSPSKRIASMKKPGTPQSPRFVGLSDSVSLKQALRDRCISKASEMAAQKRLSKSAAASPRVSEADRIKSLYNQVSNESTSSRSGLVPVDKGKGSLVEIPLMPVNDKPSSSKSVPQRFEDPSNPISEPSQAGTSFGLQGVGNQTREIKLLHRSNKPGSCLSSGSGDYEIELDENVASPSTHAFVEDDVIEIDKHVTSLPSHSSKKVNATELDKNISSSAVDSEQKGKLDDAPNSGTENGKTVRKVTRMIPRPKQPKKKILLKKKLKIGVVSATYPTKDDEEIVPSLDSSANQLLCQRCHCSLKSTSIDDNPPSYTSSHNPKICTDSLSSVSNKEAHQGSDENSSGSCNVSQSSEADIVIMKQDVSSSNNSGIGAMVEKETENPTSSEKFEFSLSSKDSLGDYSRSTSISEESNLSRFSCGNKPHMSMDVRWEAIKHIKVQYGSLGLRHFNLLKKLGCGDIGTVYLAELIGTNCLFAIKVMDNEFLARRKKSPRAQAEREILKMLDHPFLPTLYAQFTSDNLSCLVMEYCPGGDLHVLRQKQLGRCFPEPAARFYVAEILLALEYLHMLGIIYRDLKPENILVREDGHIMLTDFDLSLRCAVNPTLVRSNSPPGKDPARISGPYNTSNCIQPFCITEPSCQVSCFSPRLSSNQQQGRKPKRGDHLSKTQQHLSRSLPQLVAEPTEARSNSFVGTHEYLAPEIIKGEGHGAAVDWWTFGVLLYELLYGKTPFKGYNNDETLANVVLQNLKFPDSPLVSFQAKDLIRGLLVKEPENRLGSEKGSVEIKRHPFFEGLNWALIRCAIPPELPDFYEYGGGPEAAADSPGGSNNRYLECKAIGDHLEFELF

[3] = biological target: T3, KIPKL2 (Arabidopsis thaliana, UniProt Q9LZS4); test: as above; type: biochemical; conditions: MBP fusion; 100 µM ATP with [γ-32P]ATP, labelled compound; 5 mM MgCl2, pH 7.5, 30 °C, 1 h
T3 construct: gene AGC1-8; GST fusion (PIP strips) or MBP fusion (phosphorylation), tags kept, from E. coli Rosetta (DE3)
T3 sequence (Q9LZS4 1-926): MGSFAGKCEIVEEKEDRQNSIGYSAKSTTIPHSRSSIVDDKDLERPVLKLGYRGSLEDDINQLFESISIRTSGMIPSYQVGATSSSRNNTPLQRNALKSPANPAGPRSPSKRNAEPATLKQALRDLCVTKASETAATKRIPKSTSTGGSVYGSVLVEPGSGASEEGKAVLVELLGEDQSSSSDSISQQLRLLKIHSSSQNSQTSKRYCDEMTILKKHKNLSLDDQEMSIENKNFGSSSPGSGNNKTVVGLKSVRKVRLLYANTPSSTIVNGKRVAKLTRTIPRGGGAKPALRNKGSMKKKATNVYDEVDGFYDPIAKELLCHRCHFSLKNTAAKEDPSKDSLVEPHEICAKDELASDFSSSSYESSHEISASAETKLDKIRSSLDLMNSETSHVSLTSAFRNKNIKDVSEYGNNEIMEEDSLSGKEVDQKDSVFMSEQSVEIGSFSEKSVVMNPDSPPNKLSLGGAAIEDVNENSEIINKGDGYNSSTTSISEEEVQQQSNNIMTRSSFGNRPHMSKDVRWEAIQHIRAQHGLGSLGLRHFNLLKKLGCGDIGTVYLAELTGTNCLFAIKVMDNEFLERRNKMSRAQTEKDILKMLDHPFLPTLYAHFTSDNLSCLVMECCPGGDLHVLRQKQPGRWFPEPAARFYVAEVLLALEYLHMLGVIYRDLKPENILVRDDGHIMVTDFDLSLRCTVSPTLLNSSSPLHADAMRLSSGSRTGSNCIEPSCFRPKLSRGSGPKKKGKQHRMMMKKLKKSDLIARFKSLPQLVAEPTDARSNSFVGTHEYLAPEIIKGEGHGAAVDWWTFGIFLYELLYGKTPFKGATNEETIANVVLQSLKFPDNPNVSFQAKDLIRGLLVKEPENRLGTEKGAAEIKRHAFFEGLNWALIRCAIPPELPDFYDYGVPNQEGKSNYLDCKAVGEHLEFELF

[4] = biological target: T4, PIN3 (Arabidopsis thaliana, UniProt Q9S7Z8); test: [3H]-IAA efflux from Xenopus oocytes; type: cell-based; conditions: co-expressed with KIPK or KIPKL1; about 1 µM internal [3H]-IAA, labelled compound; outside pH 7.4, 21 °C
T4 sequence (Q9S7Z8 1-640): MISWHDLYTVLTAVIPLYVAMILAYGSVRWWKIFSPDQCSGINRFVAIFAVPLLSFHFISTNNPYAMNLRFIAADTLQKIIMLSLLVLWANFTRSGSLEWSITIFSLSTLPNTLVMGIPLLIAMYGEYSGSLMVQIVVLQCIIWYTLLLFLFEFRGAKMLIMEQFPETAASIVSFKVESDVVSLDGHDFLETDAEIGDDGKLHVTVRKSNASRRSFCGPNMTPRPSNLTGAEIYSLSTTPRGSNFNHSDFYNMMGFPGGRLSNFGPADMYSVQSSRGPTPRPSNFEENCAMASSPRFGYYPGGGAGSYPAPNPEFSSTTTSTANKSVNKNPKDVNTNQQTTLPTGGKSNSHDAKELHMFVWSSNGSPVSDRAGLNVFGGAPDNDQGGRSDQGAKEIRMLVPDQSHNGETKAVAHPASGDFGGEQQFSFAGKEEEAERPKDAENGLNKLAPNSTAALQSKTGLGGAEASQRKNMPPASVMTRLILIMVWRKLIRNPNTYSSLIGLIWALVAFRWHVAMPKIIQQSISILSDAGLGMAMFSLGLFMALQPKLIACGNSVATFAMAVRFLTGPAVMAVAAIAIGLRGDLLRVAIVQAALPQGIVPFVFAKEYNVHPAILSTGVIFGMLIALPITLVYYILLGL

Nc1ncnc2c1ncn2[C@@H]1O[C@H](COP(=O)(O)OP(=O)(O)OP(=O)(O)O)[C@@H](O)[C@H]1O [ATP]
in vitro phosphorylation of GST-PIN3CL, autoradiography [1]: MBP-KIPK and MBP-KIPKL1 phosphorylated the GST- (glutathione-S-transferase-) tagged PIN3 cytoplasmic loop | in vitro phosphorylation of GST-PIN3CL, autoradiography [2]: MBP-KIPK and MBP-KIPKL1 phosphorylated the GST- (glutathione-S-transferase-) tagged PIN3 cytoplasmic loop | in vitro phosphorylation of GST-PIN3CL, autoradiography [3]: GST-PIN3CL phosphorylation by MBP-KIPKL2 was reproducibly comparatively less efficient

O=C(O)Cc1c[nH]c2ccccc12 [IAA]
[3H]-IAA efflux from Xenopus oocytes [4]: PIN3-mediated auxin efflux was activated when PIN3 was co-expressed with KIPK or KIPKL1
